Test results: ChEMBL document CHEMBL1909046, “DrugMatrix in vitro pharmacology data”

Tests used:
[1] = molecular target: Cytochrome P450 2C19 (Homo sapiens, UniProt P33261); details: bti-tn-5b1-4; note: in other assays of this panel Not Active means under 50% inhibition at 10 µM
[2] = molecular target: T1, 5-hydroxytryptamine receptor 2C (Homo sapiens, UniProt P28335); assay: DRUGMATRIX: Serotonin (5-Hydroxytryptamine) 5-HT2C radioligand binding (ligand: [3H] Mesulergine); type: cell membranes, CHO-K1, Membrane; details: cho-k1; Not Active = under 50% inhibition at 10 µM
T1 sequence (P28335 whole entry): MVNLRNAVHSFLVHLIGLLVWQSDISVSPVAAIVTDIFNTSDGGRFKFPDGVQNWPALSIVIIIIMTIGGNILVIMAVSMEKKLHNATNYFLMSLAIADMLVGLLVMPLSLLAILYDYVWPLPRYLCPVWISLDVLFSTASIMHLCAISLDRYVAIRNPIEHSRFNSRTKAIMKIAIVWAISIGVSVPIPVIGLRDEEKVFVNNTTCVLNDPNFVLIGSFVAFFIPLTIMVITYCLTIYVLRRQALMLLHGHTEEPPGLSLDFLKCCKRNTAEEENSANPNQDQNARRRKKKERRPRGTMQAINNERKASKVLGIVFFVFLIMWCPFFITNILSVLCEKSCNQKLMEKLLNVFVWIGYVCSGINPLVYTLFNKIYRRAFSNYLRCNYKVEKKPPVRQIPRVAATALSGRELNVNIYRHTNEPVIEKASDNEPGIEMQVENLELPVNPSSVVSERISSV

[3] = molecular target: Vasopressin V1a receptor (Homo sapiens, UniProt P37288); type: cell membranes, Membrane; details: hek293; note: in other assays of this panel Not Active means under 50% inhibition at 10 µM
Chain of Vasopressin V1a receptor (P37288 whole entry): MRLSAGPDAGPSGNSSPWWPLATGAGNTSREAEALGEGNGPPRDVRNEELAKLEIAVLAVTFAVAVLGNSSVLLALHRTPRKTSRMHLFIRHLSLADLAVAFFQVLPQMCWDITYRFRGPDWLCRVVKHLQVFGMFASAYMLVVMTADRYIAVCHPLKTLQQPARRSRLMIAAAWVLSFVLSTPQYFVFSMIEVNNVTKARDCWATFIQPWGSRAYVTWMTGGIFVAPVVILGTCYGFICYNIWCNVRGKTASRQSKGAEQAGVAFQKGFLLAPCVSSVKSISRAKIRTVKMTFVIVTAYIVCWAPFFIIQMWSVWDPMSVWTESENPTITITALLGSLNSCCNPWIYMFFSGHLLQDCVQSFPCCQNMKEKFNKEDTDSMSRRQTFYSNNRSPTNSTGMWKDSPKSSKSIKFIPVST

[4] = DRUGMATRIX: Calcium Channel Type L, Dihydropyridine radioligand binding (ligand: [3H] Nitrendipine); type: cell membranes, Rattus norvegicus, Wistar, Cerebral cortex, Membrane; details: Not Active = under 50% inhibition at 10 µM
[5] = molecular target: Mitogen-activated protein kinase 1 (Homo sapiens, UniProt P28482); assay: DRUGMATRIX: Protein Serine/Threonine Kinase, ERK2 enzyme inhibition (substrate: Myelin Basic Protein); design: species or system Escherichia coli; details: Not Active = under 50% inhibition at 10 µM
Chain of Mitogen-activated protein kinase 1 (P28482 whole entry): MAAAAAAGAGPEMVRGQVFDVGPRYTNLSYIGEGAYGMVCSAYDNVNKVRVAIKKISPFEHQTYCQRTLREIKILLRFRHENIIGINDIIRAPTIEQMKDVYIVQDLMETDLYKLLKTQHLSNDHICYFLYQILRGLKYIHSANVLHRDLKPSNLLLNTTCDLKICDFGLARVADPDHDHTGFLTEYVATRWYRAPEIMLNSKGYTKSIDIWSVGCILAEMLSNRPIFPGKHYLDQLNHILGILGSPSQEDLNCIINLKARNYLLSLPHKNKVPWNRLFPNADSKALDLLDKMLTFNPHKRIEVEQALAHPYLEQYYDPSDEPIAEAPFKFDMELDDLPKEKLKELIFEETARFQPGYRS

[6] = molecular target: Sigma non-opioid intracellular receptor 1 (Homo sapiens, UniProt Q99720); assay: DRUGMATRIX: Sigma1 radioligand binding (ligand: [3H] Haloperidol); type: cell membranes, Jurkat, Membrane; details: Not Active = under 50% inhibition at 10 µM
Chain of Sigma non-opioid intracellular receptor 1 (Q99720 whole entry): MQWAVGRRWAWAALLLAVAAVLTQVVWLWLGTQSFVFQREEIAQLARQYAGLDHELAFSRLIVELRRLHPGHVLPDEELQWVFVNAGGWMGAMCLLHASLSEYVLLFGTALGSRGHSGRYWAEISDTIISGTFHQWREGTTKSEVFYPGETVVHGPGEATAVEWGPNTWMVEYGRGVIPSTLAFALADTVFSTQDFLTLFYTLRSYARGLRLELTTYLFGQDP

[7] = molecular target: C-C chemokine receptor type 2 (Homo sapiens, UniProt P41597); type: cell membranes, CHO-K1, Membrane; details: cho-k1; note: in other assays of this panel Not Active means under 50% inhibition at 10 µM
Chain of C-C chemokine receptor type 2 (P41597 whole entry): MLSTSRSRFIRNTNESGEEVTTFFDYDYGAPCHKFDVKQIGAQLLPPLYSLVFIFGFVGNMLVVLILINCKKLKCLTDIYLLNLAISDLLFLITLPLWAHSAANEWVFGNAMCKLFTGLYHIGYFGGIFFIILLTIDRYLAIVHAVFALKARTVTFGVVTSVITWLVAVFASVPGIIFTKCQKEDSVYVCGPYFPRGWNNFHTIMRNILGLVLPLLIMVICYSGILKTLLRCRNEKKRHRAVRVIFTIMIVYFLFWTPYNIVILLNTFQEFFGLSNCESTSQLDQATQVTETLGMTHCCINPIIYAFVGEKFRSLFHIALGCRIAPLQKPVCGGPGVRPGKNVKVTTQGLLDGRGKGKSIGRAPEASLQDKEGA

[8] = molecular target: T2, Neuropeptide Y receptor type 1 (Homo sapiens, UniProt P25929); type: cell membranes, Membrane; details: sk-n-mc; note: in other assays of this panel Not Active means under 50% inhibition at 10 µM
T2 sequence (P25929 whole entry): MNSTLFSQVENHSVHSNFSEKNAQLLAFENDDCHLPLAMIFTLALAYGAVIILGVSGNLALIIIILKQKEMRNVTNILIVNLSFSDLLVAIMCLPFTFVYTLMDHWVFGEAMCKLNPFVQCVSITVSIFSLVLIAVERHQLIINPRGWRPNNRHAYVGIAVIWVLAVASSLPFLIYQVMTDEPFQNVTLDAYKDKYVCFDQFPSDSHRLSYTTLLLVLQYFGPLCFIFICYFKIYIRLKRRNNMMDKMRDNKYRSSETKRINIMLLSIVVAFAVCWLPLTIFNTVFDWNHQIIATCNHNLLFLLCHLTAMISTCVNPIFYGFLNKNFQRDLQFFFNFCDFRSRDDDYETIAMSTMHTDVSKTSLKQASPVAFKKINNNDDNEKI

[9] = DRUGMATRIX: Calcium Channel Type L, Phenylalkylamine radioligand binding (ligand: [3H] (-)-Desmethoxyverapamil (D-888)); type: cell membranes, Rattus norvegicus, Wistar, Brain, Membrane; details: Not Active = under 50% inhibition at 10 µM
[10] = molecular target: T3, Alpha-1D adrenergic receptor (Homo sapiens, UniProt P25100); type: cell membranes, HEK293, Membrane; details: hek293; note: in other assays of this panel Not Active means under 50% inhibition at 10 µM
T3 sequence (P25100 whole entry): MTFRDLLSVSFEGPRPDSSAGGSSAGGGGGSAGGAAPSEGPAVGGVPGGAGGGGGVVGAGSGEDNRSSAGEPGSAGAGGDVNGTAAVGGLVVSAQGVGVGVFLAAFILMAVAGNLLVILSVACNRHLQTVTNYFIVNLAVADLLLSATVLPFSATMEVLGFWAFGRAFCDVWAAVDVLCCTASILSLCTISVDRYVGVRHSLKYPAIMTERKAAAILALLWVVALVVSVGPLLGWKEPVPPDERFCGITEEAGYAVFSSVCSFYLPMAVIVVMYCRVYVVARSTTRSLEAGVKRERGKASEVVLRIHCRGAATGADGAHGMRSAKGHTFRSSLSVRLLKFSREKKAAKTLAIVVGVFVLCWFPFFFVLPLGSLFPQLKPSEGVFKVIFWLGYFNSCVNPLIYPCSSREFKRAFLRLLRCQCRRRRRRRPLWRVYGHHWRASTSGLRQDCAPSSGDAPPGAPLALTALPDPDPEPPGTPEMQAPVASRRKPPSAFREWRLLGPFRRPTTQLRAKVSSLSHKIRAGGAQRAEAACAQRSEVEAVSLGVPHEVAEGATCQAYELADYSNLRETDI

[11] = molecular target: T4, Progesterone receptor (Bos taurus, UniProt Q690N0); assay: DRUGMATRIX: Progesterone radioligand binding (ligand: [3H] R-5020); type: tissue-based, Uterus; details: Not Active = under 50% inhibition at 10 µM
T4 sequence (Q690N0 whole entry): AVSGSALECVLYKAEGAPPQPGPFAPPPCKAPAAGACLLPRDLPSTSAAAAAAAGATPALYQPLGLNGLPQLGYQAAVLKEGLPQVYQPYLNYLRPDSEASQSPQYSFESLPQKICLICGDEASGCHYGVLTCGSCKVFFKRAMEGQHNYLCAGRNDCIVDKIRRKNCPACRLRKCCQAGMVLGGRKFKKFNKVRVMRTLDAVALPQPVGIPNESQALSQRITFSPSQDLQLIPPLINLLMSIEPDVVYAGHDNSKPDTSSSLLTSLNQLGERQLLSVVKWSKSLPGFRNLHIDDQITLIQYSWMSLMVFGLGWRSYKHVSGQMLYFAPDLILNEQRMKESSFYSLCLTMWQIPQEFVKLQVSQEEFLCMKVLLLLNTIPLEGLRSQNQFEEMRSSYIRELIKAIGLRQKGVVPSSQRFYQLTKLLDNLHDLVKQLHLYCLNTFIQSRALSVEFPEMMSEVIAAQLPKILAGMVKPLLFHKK

[12] = molecular target: Prostaglandin G/H synthase 1 (Homo sapiens, UniProt P23219); assay: biochemical; type: tissue-based, Platelet; details: platelet
Chain of Prostaglandin G/H synthase 1 (P23219 whole entry): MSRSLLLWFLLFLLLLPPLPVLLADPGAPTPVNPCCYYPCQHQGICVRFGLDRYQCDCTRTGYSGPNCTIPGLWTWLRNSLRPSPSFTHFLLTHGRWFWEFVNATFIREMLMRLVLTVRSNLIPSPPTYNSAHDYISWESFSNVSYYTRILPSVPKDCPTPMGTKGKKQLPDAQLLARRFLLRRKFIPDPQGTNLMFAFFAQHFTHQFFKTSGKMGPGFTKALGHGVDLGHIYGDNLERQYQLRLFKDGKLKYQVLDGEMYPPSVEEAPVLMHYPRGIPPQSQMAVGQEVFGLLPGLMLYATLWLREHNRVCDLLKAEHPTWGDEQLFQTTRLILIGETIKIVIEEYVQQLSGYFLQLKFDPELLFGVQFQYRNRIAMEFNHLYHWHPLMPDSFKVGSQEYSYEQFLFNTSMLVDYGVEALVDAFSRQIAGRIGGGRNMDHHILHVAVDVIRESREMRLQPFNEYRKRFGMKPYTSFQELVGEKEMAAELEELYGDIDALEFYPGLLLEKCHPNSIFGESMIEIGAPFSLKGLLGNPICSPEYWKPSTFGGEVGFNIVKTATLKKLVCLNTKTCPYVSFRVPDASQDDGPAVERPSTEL

[13] = DRUGMATRIX: Atrial Natriuretic Factor (ANF) radioligand binding (ligand: [125I] ANF (rat)); type: cell membranes, Cavia porcellus, Dunkin-Hartley, Adrenal gland, Membrane; details: Not Active = under 50% inhibition at 10 µM

Chain of Cytochrome P450 2C19 (P33261 whole entry): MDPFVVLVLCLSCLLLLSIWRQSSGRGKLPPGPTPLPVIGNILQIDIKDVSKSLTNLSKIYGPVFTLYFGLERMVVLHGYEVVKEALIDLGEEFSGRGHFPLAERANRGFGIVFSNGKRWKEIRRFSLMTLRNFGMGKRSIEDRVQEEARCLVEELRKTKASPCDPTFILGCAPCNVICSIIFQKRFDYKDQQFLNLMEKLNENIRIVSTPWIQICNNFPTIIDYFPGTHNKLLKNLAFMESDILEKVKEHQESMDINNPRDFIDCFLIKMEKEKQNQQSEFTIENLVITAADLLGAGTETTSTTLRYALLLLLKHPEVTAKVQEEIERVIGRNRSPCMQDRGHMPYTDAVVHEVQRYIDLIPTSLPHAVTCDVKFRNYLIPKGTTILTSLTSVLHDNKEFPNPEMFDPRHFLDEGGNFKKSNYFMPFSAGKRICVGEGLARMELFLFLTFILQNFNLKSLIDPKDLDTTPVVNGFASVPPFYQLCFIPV

Compound	IC50 [1]	Ki [1]	IC50 [2]	IC50 [3]	IC50 [4]	Ki [4]	IC50 [5]	IC50 ([6]; jurkat)	IC50 [7]	IC50 [8]	IC50 [9]	Ki [9]	IC50 [10]	IC50 [11]	IC50 [12]	IC50 [13]	Ki [13]	further results
NCC1(CC(=O)O)CCCCC1 [GABAPENTIN]	Not Active	Not Active	Not Active	Not Active	Not Active	Not Active	Not Active	Not Active	Not Active	Not Active	Not Active	Not Active	Not Active	Not Active	Not Active	Not Active	Not Active	–
CCc1ccc(C(=O)C(C)CN2CCCCC2)cc1 (stereo not drawn) [EPERISONE]	Not Active	Not Active	Not Active	Not Active	Not Active	Not Active	Not Active	–	Not Active	Not Active	Not Active	Not Active	Not Active	Not Active	Not Active	Not Active	Not Active	IC50 ([6]; read-out: IC50): 4.05 nM; Ki ([6]; read-out: Ki): 1.7 nM
CN1CCC[C@H]1c1cccnc1 [NICOTINE]	Not Active	Not Active	Not Active	Not Active	Not Active	Not Active	Not Active	Not Active	Not Active	Not Active	Not Active	Not Active	Not Active	Not Active	Not Active	Not Active	Not Active	–
CC1(C)S[C@@H]2[C@H](NC(=O)[C@H](NC(=O)N3CCNC3=O)c3ccccc3)C(=O)N2[C@H]1C(=O)O [AZLOCILLIN]	Not Active	Not Active	Not Active	Not Active	Not Active	Not Active	Not Active	Not Active	Not Active	Not Active	Not Active	Not Active	Not Active	Not Active	Not Active	Not Active	Not Active	–
OXALIPLATIN	Not Active	Not Active	Not Active	Not Active	Not Active	Not Active	Not Active	Not Active	Not Active	Not Active	Not Active	Not Active	Not Active	Not Active	Not Active	Not Active	Not Active	Ki [2]: Not Active; Ki [3]: Not Active; Ki [5]: Not Active; Ki ([6]; jurkat): Not Active; Ki [7]: Not Active; Ki [8]: Not Active; Ki [10]: Not Active; Ki [11]: Not Active; Ki [12]: Not Active
Cc1[nH]cnc1CN1CCc2c(c3ccccc3n2C)C1=O [ALOSETRON]	Not Active	Not Active	Not Active	Not Active	Not Active	Not Active	Not Active	Not Active	Not Active	Not Active	Not Active	Not Active	Not Active	Not Active	Not Active	Not Active	Not Active	–
C/C=C1\[C@H]2C=C(C)C[C@]1(N)c1ccc(=O)[nH]c1C2 [HUPERZINE A]	Not Active	Not Active	Not Active	Not Active	Not Active	Not Active	Not Active	Not Active	Not Active	Not Active	Not Active	Not Active	Not Active	Not Active	Not Active	Not Active	Not Active	–
O=c1[nH]cc(F)c(=O)[nH]1 [FLUOROURACIL]	Not Active	Not Active	Not Active	Not Active	Not Active	Not Active	Not Active	Not Active	Not Active	Not Active	Not Active	Not Active	Not Active	Not Active	Not Active	Not Active	Not Active	–
COC1=CC(=O)C[C@@H](C)[C@]12Oc1c(Cl)c(OC)cc(OC)c1C2=O [GRISEOFULVIN]	Not Active	Not Active	Not Active	Not Active	Not Active	Not Active	Not Active	Not Active	Not Active	Not Active	Not Active	Not Active	Not Active	Not Active	Not Active	Not Active	Not Active	–
